PubChem BioAssay AID256 (DTP/NCI, 2004)
Values joined by “and” are separate entries in the source; they are usually repeats but may differ in a detail not shown here. Identical values can stand only once. Inconclusive results and toxic doses are left out.

Test system: CD2F1 mice, L1210 leukemia ip, survival T/C
Test: NCI In Vivo Anticancer Drug Screen. Data for tumor model L1210 Leukemia (intraperitoneal) in CD2F1 (CDF1) mice
Conditions: higher = longer survival
How it was run: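 Transplantable tumor in mice; compound-treated vs vehicle-treated groups. Read-out = treated/control ratio of the measured endpoint.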

SMILES: NC(=O)c1csc(C2OC(CO)C(O)C2O)n1 (stereo not drawn)
- T/C (endpoint: mean survival time, dose: 12.5 mg/kg/injection, schedule: Q01DX005 (ip), vehicle: water): 111 % of control
- T/C (endpoint: mean survival time, dose: 25.0 mg/kg/injection, schedule: Q01DX005 (ip), vehicle: water): 120 % of control
- T/C (endpoint: mean survival time, dose: 25.0 mg/kg/injection, schedule: Q01DX009 (ip), vehicle: water): 158 % of control and 162 % of control
- T/C (endpoint: mean survival time, dose: 50.0 mg/kg/injection, schedule: Q01DX005 (ip), vehicle: water): 152 % of control
- T/C (endpoint: mean survival time, dose: 50.0 mg/kg/injection, schedule: Q01DX009 (ip), vehicle: water): 166 % of control and 167 % of control
- T/C (endpoint: mean survival time, dose: 100.0 mg/kg/injection, schedule: Q01DX009 (ip), vehicle: saline): 183 % of control
- T/C (endpoint: mean survival time, dose: 100.0 mg/kg/injection, schedule: Q01DX009 (ip), vehicle: water): 182 % of control
- T/C (endpoint: mean survival time, dose: 150.0 mg/kg/injection, schedule: Q01DX005 (ip), vehicle: water): 150 % of control
- T/C (endpoint: mean survival time, dose: 200.0 mg/kg/injection, schedule: Q01DX009 (ip), vehicle: saline): 182 % of control
- T/C (endpoint: mean survival time, dose: 200.0 mg/kg/injection, schedule: Q01DX009 (ip), vehicle: water): 203 % of control and 219 % of control
- T/C (endpoint: mean survival time, dose: 300.0 mg/kg/injection, schedule: Q01DX005 (ip), vehicle: water): 155 % of control
- T/C (endpoint: mean survival time, dose: 400.0 mg/kg/injection, schedule: Q01DX005 (ip), vehicle: water): 191 % of control and 192 % of control and 216 % of control
- T/C (endpoint: mean survival time, dose: 400.0 mg/kg/injection, schedule: Q01DX009 (ip), vehicle: saline): 224 % of control
- T/C (endpoint: mean survival time, dose: 400.0 mg/kg/injection, schedule: Q01DX009 (ip), vehicle: water): 200 % of control and 229 % of control
- T/C (endpoint: mean survival time, dose: 600.0 mg/kg/injection, schedule: Q01DX009 (ip), vehicle: saline): 230 % of control
- T/C (endpoint: mean survival time, dose: 800.0 mg/kg/injection, schedule: Q01DX005 (ip), vehicle: water): 206 % of control and 247 % of control
- T/C (endpoint: mean survival time, dose: 800.0 mg/kg/injection, schedule: Q01DX009 (ip), vehicle: saline): 171 % of control
- T/C (endpoint: mean survival time, dose: 800.0 mg/kg/injection, schedule: Q01DX009 (ip), vehicle: water): 185 % of control
- T/C (endpoint: median survival time, dose: 4.0 mg/kg/injection, schedule: Q03HX024 (ip), vehicle: water): 150 % of control
- T/C (endpoint: median survival time, dose: 8.0 mg/kg/injection, schedule: Q03HX024 (ip), vehicle: water): 186 % of control
- T/C (endpoint: median survival time, dose: 16.0 mg/kg/injection, schedule: Q03HX024 (ip), vehicle: water): 168 % of control
- T/C (endpoint: median survival time, dose: 16.0 mg/kg/injection, schedule: Q04DX003 (ip), vehicle: water): 101 % of control
- T/C (endpoint: median survival time, dose: 16.0 mg/kg/injection, schedule: Q#A X018 (ip), vehicle: water): 174 % of control
- T/C (endpoint: median survival time, dose: 22.25 mg/kg/injection, schedule: Q01DX005 (ip), vehicle: water): 97 % of control
- T/C (endpoint: median survival time, dose: 23.44 mg/kg/injection, schedule: Q01DX005 (ip), vehicle: water): 98 % of control
- T/C (endpoint: median survival time, dose: 32.0 mg/kg/injection, schedule: Q01DX001 (iv), vehicle: water): 117 % of control
- T/C (endpoint: median survival time, dose: 32.0 mg/kg/injection, schedule: Q01DX005 (ip), vehicle: water): 152 % of control
- T/C (endpoint: median survival time, dose: 32.0 mg/kg/injection, schedule: Q01DX009 (ip), vehicle: water): 159 % of control and 176 % of control
- T/C (endpoint: median survival time, dose: 32.0 mg/kg/injection, schedule: Q01DX009 (oral), vehicle: water): 163 % of control
- T/C (endpoint: median survival time, dose: 32.0 mg/kg/injection, schedule: Q03HX024 (ip), vehicle: water): 184 % of control
- T/C (endpoint: median survival time, dose: 32.0 mg/kg/injection, schedule: Q04DX003 (ip), vehicle: water): 109 % of control
- T/C (endpoint: median survival time, dose: 32.0 mg/kg/injection, schedule: Q#A X018 (ip), vehicle: water): 195 % of control
- T/C (endpoint: median survival time, dose: 44.5 mg/kg/injection, schedule: Q01DX005 (ip), vehicle: water): 102 % of control
- T/C (endpoint: median survival time, dose: 64.0 mg/kg/injection, schedule: Q01DX001 (ip), vehicle: water): 110 % of control
- T/C (endpoint: median survival time, dose: 64.0 mg/kg/injection, schedule: Q01DX001 (iv), vehicle: water): 120 % of control
- T/C (endpoint: median survival time, dose: 64.0 mg/kg/injection, schedule: Q01DX001 (oral), vehicle: water): 111 % of control
- T/C (endpoint: median survival time, dose: 64.0 mg/kg/injection, schedule: Q01DX005 (ip), vehicle: water): 163 % of control
- T/C (endpoint: median survival time, dose: 64.0 mg/kg/injection, schedule: Q01DX005 (iv), vehicle: water): 151 % of control
- T/C (endpoint: median survival time, dose: 64.0 mg/kg/injection, schedule: Q01DX005 (oral), vehicle: water): 150 % of control
- T/C (endpoint: median survival time, dose: 64.0 mg/kg/injection, schedule: Q01DX009 (oral), vehicle: water): 188 % of control
- T/C (endpoint: median survival time, dose: 64.0 mg/kg/injection, schedule: Q03HX024 (ip), vehicle: water): 219 % of control
- T/C (endpoint: median survival time, dose: 64.0 mg/kg/injection, schedule: Q04DX003 (ip), vehicle: water): 114 % of control
- T/C (endpoint: median survival time, dose: 64.0 mg/kg/injection, schedule: Q#A X018 (ip), vehicle: water): 210 % of control
- T/C (endpoint: median survival time, dose: 89.0 mg/kg/injection, schedule: Q01DX005 (ip), vehicle: water): 94 % of control
- T/C (endpoint: median survival time, dose: 93.75 mg/kg/injection, schedule: Q01DX005 (ip), vehicle: water): 101 % of control
- T/C (endpoint: median survival time, dose: 125.0 mg/kg/injection, schedule: Q01DX005 (ip), vehicle: water): 168 % of control
- T/C (endpoint: median survival time, dose: 128.0 mg/kg/injection, schedule: Q01DX001 (ip), vehicle: water): 114 % of control
- T/C (endpoint: median survival time, dose: 128.0 mg/kg/injection, schedule: Q01DX001 (oral), vehicle: water): 123 % of control
- T/C (endpoint: median survival time, dose: 128.0 mg/kg/injection, schedule: Q01DX005 (ip), vehicle: water): 164 % of control
- T/C (endpoint: median survival time, dose: 128.0 mg/kg/injection, schedule: Q01DX005 (iv), vehicle: water): 166 % of control
- T/C (endpoint: median survival time, dose: 128.0 mg/kg/injection, schedule: Q01DX005 (oral), vehicle: water): 163 % of control
- T/C (endpoint: median survival time, dose: 128.0 mg/kg/injection, schedule: Q01DX009 (oral), vehicle: water): 217 % of control
- T/C (endpoint: median survival time, dose: 128.0 mg/kg/injection, schedule: Q03HX024 (ip), vehicle: water): 231 % of control
- T/C (endpoint: median survival time, dose: 128.0 mg/kg/injection, schedule: Q04DX003 (ip), vehicle: water): 118 % of control
- T/C (endpoint: median survival time, dose: 128.0 mg/kg/injection, schedule: Q#A X018 (ip), vehicle: water): 240 % of control
- T/C (endpoint: median survival time, dose: 150.0 mg/kg/injection, schedule: Q01DX005 (ip), vehicle: water): 157 % of control
- T/C (endpoint: median survival time, dose: 178.0 mg/kg/injection, schedule: Q01DX005 (ip), vehicle: water): 98 % of control
- T/C (endpoint: median survival time, dose: 250.0 mg/kg/injection, schedule: Q01DX005 (ip), vehicle: water): 158 % of control and 179 % of control
- T/C (endpoint: median survival time, dose: 256.0 mg/kg/injection, schedule: Q01DX001 (ip), vehicle: water): 117 % of control
- T/C (endpoint: median survival time, dose: 256.0 mg/kg/injection, schedule: Q01DX001 (oral), vehicle: water): 122 % of control
- T/C (endpoint: median survival time, dose: 256.0 mg/kg/injection, schedule: Q01DX005 (ip), vehicle: water): 183 % of control
- T/C (endpoint: median survival time, dose: 256.0 mg/kg/injection, schedule: Q01DX005 (iv), vehicle: water): 190 % of control
- T/C (endpoint: median survival time, dose: 256.0 mg/kg/injection, schedule: Q01DX005 (oral), vehicle: water): 188 % of control
- T/C (endpoint: median survival time, dose: 256.0 mg/kg/injection, schedule: Q01DX009 (oral), vehicle: water): 227 % of control
- T/C (endpoint: median survival time, dose: 256.0 mg/kg/injection, schedule: Q03HX024 (ip), vehicle: water): 246 % of control
- T/C (endpoint: median survival time, dose: 256.0 mg/kg/injection, schedule: Q#A X018 (ip), vehicle: water): 252 % of control
- T/C (endpoint: median survival time, dose: 300.0 mg/kg/injection, schedule: Q01DX005 (ip), vehicle: water): 166 % of control
- T/C (endpoint: median survival time, dose: 356.0 mg/kg/injection, schedule: Q01DX005 (ip), vehicle: water): 101 % of control
- T/C (endpoint: median survival time, dose: 375.0 mg/kg/injection, schedule: Q01DX005 (ip), vehicle: water): 92 % of control
- T/C (endpoint: median survival time, dose: 500.0 mg/kg/injection, schedule: Q01DX005 (ip), vehicle: water): 175 % of control and 201 % of control
- T/C (endpoint: median survival time, dose: 512.0 mg/kg/injection, schedule: Q01DX005 (ip), vehicle: water): 190 % of control
- T/C (endpoint: median survival time, dose: 512.0 mg/kg/injection, schedule: Q01DX005 (iv), vehicle: water): 217 % of control
- T/C (endpoint: median survival time, dose: 512.0 mg/kg/injection, schedule: Q01DX005 (oral), vehicle: water): 195 % of control
- T/C (endpoint: median survival time, dose: 512.0 mg/kg/injection, schedule: Q01DX009 (oral), vehicle: water): 154 % of control
- T/C (endpoint: median survival time, dose: 512.0 mg/kg/injection, schedule: Q03HX024 (ip), vehicle: water): 284 % of control
- T/C (endpoint: median survival time, dose: 512.0 mg/kg/injection, schedule: Q04DX003 (ip), vehicle: water): 180 % of control
- T/C (endpoint: median survival time, dose: 512.0 mg/kg/injection, schedule: Q#A X018 (ip), vehicle: water): 269 % of control
- T/C (endpoint: median survival time, dose: 600.0 mg/kg/injection, schedule: Q01DX005 (ip), vehicle: water): 188 % of control
- T/C (endpoint: median survival time, dose: 1000.0 mg/kg/injection, schedule: Q01DX005 (ip), vehicle: water): 188 % of control and 191 % of control
- T/C (endpoint: median survival time, dose: 1024.0 mg/kg/injection, schedule: Q01DX005 (ip), vehicle: water): 205 % of control
- T/C (endpoint: median survival time, dose: 1024.0 mg/kg/injection, schedule: Q01DX005 (iv), vehicle: water): 226 % of control
- T/C (endpoint: median survival time, dose: 1024.0 mg/kg/injection, schedule: Q01DX005 (oral), vehicle: water): 213 % of control
- T/C (endpoint: median survival time, dose: 1024.0 mg/kg/injection, schedule: Q01DX009 (oral), vehicle: water): 110 % of control
- T/C (endpoint: median survival time, dose: 1024.0 mg/kg/injection, schedule: Q04DX003 (ip), vehicle: water): 191 % of control
- T/C (endpoint: median survival time, dose: 2048.0 mg/kg/injection, schedule: Q01DX001 (oral), vehicle: water): 155 % of control
- T/C (endpoint: median survival time, dose: 2048.0 mg/kg/injection, schedule: Q01DX005 (oral), vehicle: water): 98 % of control
- T/C (endpoint: median survival time, dose: 2048.0 mg/kg/injection, schedule: Q01DX009 (ip), vehicle: water): 109 % of control
- T/C (endpoint: median survival time, dose: 2048.0 mg/kg/injection, schedule: Q04DX003 (ip), vehicle: water): 223 % of control
